Measured values from patent US20250326749A1, “COMPOUNDS, COMPOSITIONS, AND METHODS OF USING THEREOF” (Sionna Therapeutics Inc., priority 2022, published 2025).

What follows are compounds tested against T1, ΔF508-CFTR (Homo sapiens, UniProt P13569, DEL508-508) (assay: ΔF508-CFTR-HRP trafficking assay (cell surface expression of ΔF508-CFTR)). Conditions: CFSMEo- cells transiently transfected with ΔF508-CFTR-HRP; test agent 3 μM, 48 h; HRP chemiluminescence.
T1 construct: expressed in transfected cells; host or cells: CFSMEo- (human CF submucosal gland epithelial cells, ΔF508/Q2X), transiently transfected by nucleofection
T1 sequence (P13569 with tags, fused parts or gaps DEL508-508): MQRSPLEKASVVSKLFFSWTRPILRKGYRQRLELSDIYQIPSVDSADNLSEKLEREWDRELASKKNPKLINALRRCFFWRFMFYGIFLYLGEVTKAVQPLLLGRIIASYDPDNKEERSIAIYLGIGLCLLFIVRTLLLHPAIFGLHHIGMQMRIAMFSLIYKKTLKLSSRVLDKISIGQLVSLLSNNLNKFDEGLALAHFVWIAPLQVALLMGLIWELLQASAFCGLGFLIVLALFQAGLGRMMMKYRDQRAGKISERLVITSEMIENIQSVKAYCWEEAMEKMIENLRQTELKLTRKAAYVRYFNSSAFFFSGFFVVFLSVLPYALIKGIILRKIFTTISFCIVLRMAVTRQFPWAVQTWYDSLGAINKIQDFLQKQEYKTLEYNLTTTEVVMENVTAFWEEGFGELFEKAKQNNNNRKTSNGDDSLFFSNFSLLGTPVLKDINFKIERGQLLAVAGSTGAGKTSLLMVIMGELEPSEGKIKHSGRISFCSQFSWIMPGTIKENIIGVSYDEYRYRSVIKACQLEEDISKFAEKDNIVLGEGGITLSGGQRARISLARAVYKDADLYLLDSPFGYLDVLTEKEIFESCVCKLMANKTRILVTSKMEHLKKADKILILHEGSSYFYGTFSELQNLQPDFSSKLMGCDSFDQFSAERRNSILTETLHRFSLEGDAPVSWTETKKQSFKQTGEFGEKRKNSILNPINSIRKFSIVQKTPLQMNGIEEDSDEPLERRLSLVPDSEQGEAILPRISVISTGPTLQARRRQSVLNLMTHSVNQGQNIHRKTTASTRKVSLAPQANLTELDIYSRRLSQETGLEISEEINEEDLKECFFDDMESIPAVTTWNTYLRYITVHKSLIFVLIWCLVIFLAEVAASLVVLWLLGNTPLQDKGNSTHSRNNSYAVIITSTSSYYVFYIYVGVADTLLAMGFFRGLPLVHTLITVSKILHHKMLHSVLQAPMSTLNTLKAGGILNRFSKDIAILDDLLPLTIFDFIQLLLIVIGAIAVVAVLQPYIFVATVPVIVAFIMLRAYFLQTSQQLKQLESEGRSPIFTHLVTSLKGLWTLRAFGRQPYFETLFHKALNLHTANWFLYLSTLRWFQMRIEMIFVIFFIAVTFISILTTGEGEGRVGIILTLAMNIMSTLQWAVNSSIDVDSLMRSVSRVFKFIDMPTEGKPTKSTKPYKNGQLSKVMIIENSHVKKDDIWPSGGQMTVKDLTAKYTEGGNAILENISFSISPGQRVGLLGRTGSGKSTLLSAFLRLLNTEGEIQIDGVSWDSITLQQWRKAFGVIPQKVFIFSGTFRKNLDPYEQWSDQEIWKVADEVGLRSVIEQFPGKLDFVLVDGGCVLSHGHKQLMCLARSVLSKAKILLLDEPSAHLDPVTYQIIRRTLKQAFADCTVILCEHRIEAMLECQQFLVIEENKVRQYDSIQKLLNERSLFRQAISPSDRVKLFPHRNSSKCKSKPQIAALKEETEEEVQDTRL
Format: cell-based
From the text: Test agents were screened for their effect on cell surface expression of ΔF508-CFTR using the ΔF508-CFTR-HRP trafficking assay. For this assay, a ΔF508-CFTR expression construct was designed with an in-frame insertion of a horseradish peroxidase (HRP) tag into the 4th extracellular loop of CFTR. The HRP tag would be presented extracellularly, in cells transiently transfected with the ΔF508-CFTR-HRP construct, following correction of the ΔF508-CFTR trafficking defect. The quantity of ΔF508-CFTR-HRP expressed on the plasma membrane could therefore be determined by measuring an HRP-dependent signal after the application of a cell-impermeable HRP substrate.
In brief, CF submucosal gland epithelial cells (CFSMEo-), derived from the airways of a CF patient (ΔF508/Q2X) and provided by Dr. Dieter Gruenert, University of California-San Francisco, were cultured at 37° C. with 5% CO2 in minimum essential medium (MEM) with Earle's salt and nonessential amino acids, supplemented with 10% (volume per volume [v/v]) fetal bovine serum, 2 mM L-glutamine and 1× (v/v) penicillin/streptomycin and grown in tissue culture-treated flasks coated with an extracellular matrix (ECM) cocktail consisting of 10 μg/mL human fibronectin, 30 μg/mL bovine collagen type I, and 100 μg/mL bovine serum albumin in LHC basal medium. These CFSMEo^− cells were transiently transfected with 4 μg of the ΔF508-CFTR-HRP expression construct using the Lonza 4D-Nucleofector Core unit (Lonza, Catalogue No. AAF-1002B) with the X unit (Lonza, Catalogue No. AAF-1002X) and SF Cell Line 4D-Nucleofector X Kit L (Lonza, Catalogue No. V4XC-2024) according to the manufacturer's instructions and plated at 1.2×10^4 cells/well onto collagen-coated, 96-well plates (Corning Inc.). Twenty-four h post-transfection, cells were treated with test agents, solubilized in DMSO at a concentration of 3 μM in replicates of 3, and allowed to incubate for 48 h. To detect HRP expression, cell culture media was removed, cells were washed with PBS and 100 μL of Luminata Forte HRP chemiluminescent substrate (EMD Millipore, Burlington, MA) was added to each well. Following a 5-minute incubation, chemiluminescence was measured in relative luminescent units (RLUs) using an EnVision plate reader (Perkin Elmer, Waltham, MA).
The ΔF508-CFTR-HRP trafficking data was normalized to the vehicle treated control (0.3% DMSO), followed by calculation of the mean, standard deviation, and standard error. If the test agent increased cell surface expression of ΔF508-CFTR-HRP relative to the vehicle-treated control, then that test agent was considered a ΔF508-CFTR corrector. Based on the description above, the biological activity of the examples in this disclosure is collected in Table 2.
For `C[C@H](Oc1cncc(-n2nc(C(F)(F)F)c3c2[C@H](CN2CCC(C(=O)O)CC2)CCC3)c1)c1ccc2c(c1)OC(F)(F)O2` (single isomer, unassigned) [124 (P2)], the “RLUs: ΔF508-CFTR-HRP trafficking data normalized to the vehicle treated control (0.3% DMSO)” value was “B (RLU 3.5 μM-5.0 μM)”. With `C[C@H](Oc1cc(-n2nc(C(F)(F)F)c3c2[C@@H](CN2CCC(C(=O)O)CC2)CCC3)ccn1)c1ccc2c(c1)OC(F)(F)O2` (single isomer, unassigned) [125 (P1)] the “RLUs: ΔF508-CFTR-HRP trafficking data normalized to the vehicle treated control (0.3% DMSO)” value was “A (RLU 5.0 μM-10 μM)”. For `C[C@H](Oc1cc(-n2nc(C(F)(F)F)c3c2[C@H](CN2CCC(C(=O)O)CC2)CCC3)ccn1)c1ccc2c(c1)OC(F)(F)O2` (single isomer, unassigned) [125 (P2)], the “RLUs: ΔF508-CFTR-HRP trafficking data normalized to the vehicle treated control (0.3% DMSO)” value was “A (RLU 5.0 μM-10 μM)”. In the case of `C[C@@H](Oc1cc(-n2nc(C(F)(F)F)c3c2N(CC24CC(C(=O)O)(C2)C4)CCC3)cnn1)c1cc2c(cn1)OC(F)(F)O2` (single isomer, unassigned) [Example 1], the “RLUs: ΔF508-CFTR-HRP trafficking data normalized to the vehicle treated control (0.3% DMSO)” value is reported as “C (RLU 0.0 μM-3.5 μM)”. With `C[C@H](Oc1cc(-n2nc(C(F)(F)F)c3c2N(CC24CC(C(=O)O)(C2)C4)CCC3)cnn1)c1cc2c(cn1)OC(F)(F)O2` (single isomer, unassigned) [Example 2] the “RLUs: ΔF508-CFTR-HRP trafficking data normalized to the vehicle treated control (0.3% DMSO)” value was “C (RLU 0.0 μM-3.5 μM)”. `C[C@@H](Oc1cc(-n2nc(C(F)(F)F)c3c2N(Cc2ccc(C(=O)O)cc2)CCC3)cnn1)c1ccc2c(c1)OC(F)(F)O2` (single isomer, unassigned) [Example 3] was tested, and the “RLUs: ΔF508-CFTR-HRP trafficking data normalized to the vehicle treated control (0.3% DMSO)” value was “C (RLU 0.0 μM-3.5 μM)”. `C[C@H](Oc1cc(-n2nc(C(F)(F)F)c3c2N(Cc2ccc(C(=O)O)cc2)CCC3)cnn1)c1ccc2c(c1)OC(F)(F)O2` (single isomer, unassigned) [Example 4] was tested, and the “RLUs: ΔF508-CFTR-HRP trafficking data normalized to the vehicle treated control (0.3% DMSO)” value was “B (RLU 3.5 μM-5.0 μM)”. With `C[C@@H](Oc1cc(-n2nc(C(F)(F)F)c3c2N(CC24CC(C(=O)O)(C2)C4)CCC3)cnn1)c1ccc2c(c1)OC(F)(F)O2` (single isomer, unassigned) [Example 5] the “RLUs: ΔF508-CFTR-HRP trafficking data normalized to the vehicle treated control (0.3% DMSO)” value was “A (RLU 5.0 μM-10 μM)”. `C[C@H](Oc1cc(-n2nc(C(F)(F)F)c3c2N(CC24CC(C(=O)O)(C2)C4)CCC3)cnn1)c1ccc2c(c1)OC(F)(F)O2` (single isomer, unassigned) [Example 6] was tested, and the “RLUs: ΔF508-CFTR-HRP trafficking data normalized to the vehicle treated control (0.3% DMSO)” value was “C (RLU 0.0 μM-3.5 μM)”. With `C[C@H](Oc1cc(-n2nc(C(F)(F)F)c3c2N(C[C@H]2CC[C@H](C(=O)O)CC2)CCC3)ccn1)c1ccc2c(c1)OC(F)(F)O2` (single isomer, unassigned) [Example 7] the “RLUs: ΔF508-CFTR-HRP trafficking data normalized to the vehicle treated control (0.3% DMSO)” value was “A (RLU 5.0 μM-10 μM)”. `C[C@H](Oc1cc(-n2nc(C(F)(F)F)c3c2N(CC24CCC(C(=O)O)(CC2)CC4)CCC3)ccn1)c1ccc2c(c1)OC(F)(F)O2` (single isomer, unassigned) [Example 9] was tested, and the “RLUs: ΔF508-CFTR-HRP trafficking data normalized to the vehicle treated control (0.3% DMSO)” value was “A (RLU 5.0 μM-10 μM)”. In the case of `C[C@H](Oc1cncc(-n2nc(C(F)(F)F)c3c2N(Cc2ccc(C(=O)O)cc2)CCC3)c1)c1ccc2c(c1)OC(F)(F)O2` (single isomer, unassigned) [Example 12], the “RLUs: ΔF508-CFTR-HRP trafficking data normalized to the vehicle treated control (0.3% DMSO)” value is reported as “C (RLU 0.0 μM-3.5 μM)”. For `C[C@H](Oc1cncc(-n2nc(C(F)(F)F)c3c2N(CC24CCC(C(=O)O)(CC2)CC4)CCC3)c1)c1ccc2c(c1)OC(F)(F)O2` (single isomer, unassigned) [Example 14], the “RLUs: ΔF508-CFTR-HRP trafficking data normalized to the vehicle treated control (0.3% DMSO)” value was “A (RLU 5.0 μM-10 μM)”. With `C[C@H](Oc1cccc(-n2nc(C(F)(F)F)c3c2N(C(=O)c2ccc(C(=O)O)cc2)CCC3)c1)c1ccc2c(c1)OC(F)(F)O2` (single isomer, unassigned) [Example 15] the “RLUs: ΔF508-CFTR-HRP trafficking data normalized to the vehicle treated control (0.3% DMSO)” value was “B (RLU 3.5 μM-5.0 μM)”. With `C[C@H](Oc1cncc(-n2nc(C(F)(F)F)c3c2N(C(=O)c2ccc(C(=O)O)cc2)CCC3)c1)c1ccc2c(c1)OC(F)(F)O2` (single isomer, unassigned) [Example 16] the “RLUs: ΔF508-CFTR-HRP trafficking data normalized to the vehicle treated control (0.3% DMSO)” value was “C (RLU 0.0 μM-3.5 μM)”. `C[C@H](Oc1cncc(-n2nc(C(F)(F)F)c3c2N(C(=O)[C@H]2CC[C@H](C(=O)O)CC2)CCC3)c1)c1ccc2c(c1)OC(F)(F)O2` (single isomer, unassigned) [Example 17] was tested, and the “RLUs: ΔF508-CFTR-HRP trafficking data normalized to the vehicle treated control (0.3% DMSO)” value was “C (RLU 0.0 μM-3.5 μM)”. For `C[C@H](Oc1cc(-n2nc(C(F)(F)F)c3c2[C@H](Oc2ccc(C(=O)O)cc2)CCC3)ccn1)c1ccc2c(c1)OC(F)(F)O2` (single isomer, unassigned) [Example 23], the “RLUs: ΔF508-CFTR-HRP trafficking data normalized to the vehicle treated control (0.3% DMSO)” value was “C (RLU 0.0 μM-3.5 μM)”. For `C[C@H](Oc1cccc(-n2nc(C(F)(F)F)c3c2[C@@H](Oc2ccc(C(=O)O)cc2)CCC3)c1)c1ccc2c(c1)OC(F)(F)O2` (single isomer, unassigned) [Example 25], the “RLUs: ΔF508-CFTR-HRP trafficking data normalized to the vehicle treated control (0.3% DMSO)” value was “B (RLU 3.5 μM-5.0 μM)”. In the case of `C[C@H](Oc1cccc(-n2nc(C(F)(F)F)c3c2[C@H](Oc2ccc(C(=O)O)cc2)CCC3)c1)c1ccc2c(c1)OC(F)(F)O2` (single isomer, unassigned) [Example 26], the “RLUs: ΔF508-CFTR-HRP trafficking data normalized to the vehicle treated control (0.3% DMSO)” value is reported as “A (RLU 5.0 μM-10 μM)”. In the case of `C[C@H](Oc1cncc(-n2nc(C(F)(F)F)c3c2[C@@H](Oc2ccc(C(=O)O)cc2)CCC3)c1)c1ccc2c(c1)OC(F)(F)O2` (single isomer, unassigned) [Example 27], the “RLUs: ΔF508-CFTR-HRP trafficking data normalized to the vehicle treated control (0.3% DMSO)” value is reported as “C (RLU 0.0 μM-3.5 μM)”. `C[C@@H](Oc1cccc(-n2nc(C(F)(F)F)c3c2C(Oc2ccc(C(=O)O)cc2)CCC3)c1)c1ccc2c(c1)OC(F)(F)O2` (single isomer, unassigned) [Example 28] was tested, and the “RLUs: ΔF508-CFTR-HRP trafficking data normalized to the vehicle treated control (0.3% DMSO)” value was “A (RLU 5.0 μM-10 μM)”. `Cc1cc(OC2CCCc3c(C(F)(F)F)nn(-c4cccc(O[C@H](C)c5cc6c(cc5F)OC(F)(F)O6)c4)c32)ccc1C(=O)O` (single isomer, unassigned) [Example 34] was tested, and the “RLUs: ΔF508-CFTR-HRP trafficking data normalized to the vehicle treated control (0.3% DMSO)” value was “B (RLU 3.5 μM-5.0 μM)”. For `C[C@H](Oc1cc(-n2nc(C(F)(F)F)c3c2[C@@H](Oc2ccc(C(=O)O)cc2)CCC3)ccc1F)c1ccc2c(c1)OC(F)(F)O2` (single isomer, unassigned) [Example 36], the “RLUs: ΔF508-CFTR-HRP trafficking data normalized to the vehicle treated control (0.3% DMSO)” value was “C (RLU 0.0 μM-3.5 μM)”. For `C[C@H](Oc1cc(-n2nc(C(F)(F)F)c3c2[C@@H](Oc2ccc(C(=O)O)cc2)CCC3)ccn1)c1cc2c(cc1F)OC(F)(F)O2` (single isomer, unassigned) [Example 36a], the “RLUs: ΔF508-CFTR-HRP trafficking data normalized to the vehicle treated control (0.3% DMSO)” value was “A (RLU 5.0 μM-10 μM)”. For `C[C@H](Oc1ccnc(-n2nc(C(F)(F)F)c3c2[C@@H](Oc2ccc(C(=O)O)cc2)CCC3)c1)c1ccc2c(c1)OC(F)(F)O2` (single isomer, unassigned) [Example 36b], the “RLUs: ΔF508-CFTR-HRP trafficking data normalized to the vehicle treated control (0.3% DMSO)” value was “A (RLU 5.0 μM-10 μM)”. In the case of `C[C@H](Oc1cccc(-n2nc(C(F)(F)F)c3c2[C@@H](Oc2ccc(C(=O)O)cc2)CCC3)n1)c1ccc2c(c1)OC(F)(F)O2` (single isomer, unassigned) [Example 36c], the “RLUs: ΔF508-CFTR-HRP trafficking data normalized to the vehicle treated control (0.3% DMSO)” value is reported as “B (RLU 3.5 μM-5.0 μM)”. With `C[C@H](Oc1cc(-n2nc(C(F)(F)F)c3c2[C@@H](Oc2ccc(C(=O)O)cc2)CCC3)cnc1F)c1cc2c(cc1F)OC(F)(F)O2` (single isomer, unassigned) [Example 36d] the “RLUs: ΔF508-CFTR-HRP trafficking data normalized to the vehicle treated control (0.3% DMSO)” value was “B (RLU 3.5 μM-5.0 μM)”. `C[C@H](Oc1cncc(-n2nc(C(F)(F)F)c3c2[C@@H](Oc2ccc(C(=O)O)cc2)CCC3)c1)c1cc2c(cc1F)OC(F)(F)O2` (single isomer, unassigned) [Example 36e] was tested, and the “RLUs: ΔF508-CFTR-HRP trafficking data normalized to the vehicle treated control (0.3% DMSO)” value was “A (RLU 5.0 μM-10 μM)”. In the case of `C[C@H](Oc1nc(-n2nc(C(F)(F)F)c3c2[C@@H](Oc2ccc(C(=O)O)cc2)CCC3)ccc1F)c1ccc2c(c1)OC(F)(F)O2` (single isomer, unassigned) [Example 36f], the “RLUs: ΔF508-CFTR-HRP trafficking data normalized to the vehicle treated control (0.3% DMSO)” value is reported as “A (RLU 5.0 μM-10 μM)”. In the case of `C[C@H](Oc1cccc(-n2nc(C(F)(F)F)c3c2[C@@H](Oc2ccc(C(=O)O)cc2)CCC3)c1)c1cc2c(cc1F)OC(F)(F)O2` (single isomer, unassigned) [Example 36g], the “RLUs: ΔF508-CFTR-HRP trafficking data normalized to the vehicle treated control (0.3% DMSO)” value is reported as “B (RLU 3.5 μM-5.0 μM)”.
